Measurements published in patent US20210395651A1, “COMPOUNDS STABILIZING HYDROLASES IN LIQUIDS” (BASF SE, priority 2018, published 2021).

molecular target: T1, Lipolase® 100L (Thermomyces lanuginosus, UniProt O59952); experiment: Lipase storage stability in liquid formulations at 37° C. (pNP-valerate activity); assay type: biochemical, Thermomyces lanuginosa; settings: base formulation I. (Lipolase 0.2 wt%, tested compound 2.5 wt%); 3 d storage at 37° C.
T1 construct: purchased Sigma-Aldrich
T1 sequence (O59952 23-291): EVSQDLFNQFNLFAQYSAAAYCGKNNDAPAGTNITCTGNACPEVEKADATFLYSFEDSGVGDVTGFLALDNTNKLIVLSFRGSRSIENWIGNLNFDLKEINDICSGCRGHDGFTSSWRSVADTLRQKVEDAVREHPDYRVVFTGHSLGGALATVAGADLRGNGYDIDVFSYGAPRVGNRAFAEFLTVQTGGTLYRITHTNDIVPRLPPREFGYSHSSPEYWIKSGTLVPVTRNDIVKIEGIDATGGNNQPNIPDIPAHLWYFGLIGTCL
Method: The storage stability of Lipase was assessed at 37° C.
Base test formulations were manufactured by making base formulations I to V by mixing the components according to Table 1.
The respective component (a) or comparative compound was added, if applicable, to the respective base formulation in amounts as indicated in Table 1.
Lipase used: Lipolase® 100L (CAS-No. 9001-62-1, EC-No. 232-619-9) was purchased from Sigma-Aldrich.
The amount of lipase as provided in Table 1 refers to active protein.
Water was added to accomplish the balance to 100.
Lipolase activity at certain points in time as indicated in Table 2 was be determined by employing pNitrophenol-valerate (2.4 mM pNP-C5 in 100 mM Tris pH 8.0, 0.01% Triton X100) as a substrate. The absorption at 405 nm was measured at 20° C. every 30 seconds over 5 minutes.
The slope (absorbance increase at 405 nm per minute) of the time dependent absorption-curve is directly proportional to the activity of the lipase.
The […] activity values provided in Table 2 were calculated referring to the 100% value determined in the reference formulation at the time 0.
The nomenclature of formulations is as follows: the Roman number before the full stop characterizes the base formulation, the Arabian number the type of compound (A.# compound according to invention (component (a)); (B.#) comparative compound).

Question: Which “lipase activity, 3 d” value does the source give for CCOC(=O)C(=O)OCC [B.3, diethyloxalate, reference compound] here?
Answer: 90%

same assay, conditions: base formulation I. (Lipolase 0.2 wt%, tested compound 2.5 wt%); 7 d storage at 37° C.

Question: For CCOC(=O)C(=O)OCC [B.3, diethyloxalate, reference compound], which “lipase activity, 7 d” value is on record?
Answer: 80%

same assay, conditions: base formulation I. (Lipolase 0.2 wt%, tested compound 2.5 wt%); 14 d storage at 37° C.

Question: How did the “lipase activity, 14 d” value turn out when CCOC(=O)C(=O)OCC [B.3, diethyloxalate, reference compound] was run?
Answer: 70%

same assay, conditions: base formulation I. (Lipolase 0.2 wt%, tested compound 2.5 wt%); 21 d storage at 37° C.

Question: With CCOC(=O)C(=O)OCC [B.3, diethyloxalate, reference compound] as the molecule, how does the “lipase activity, 21 d” value read?
Answer: 54%

same assay, conditions: base formulation I. (Lipolase 0.2 wt%, tested compound 2.5 wt%); 28 d storage at 37° C.

Question: For CCOC(=O)C(=O)OCC [B.3, diethyloxalate, reference compound], which “lipase activity, 28 d” value is on record?
Answer: 45%

same assay, conditions: base formulation I. (Lipolase 0.2 wt%, tested compound 2.5 wt%); 35 d storage at 37° C.

Question: Which “lipase activity, 35 d” value does the source give for CCOC(=O)C(=O)OCC [B.3, diethyloxalate, reference compound] here?
Answer: 37%

same assay, conditions: base formulation I. (Lipolase 0.2 wt%, tested compound 2.5 wt%); T0; relative to 100% value of reference formulation at time 0

Question: Which “lipase activity, T0” value does the source give for CCOC(=O)C(=O)OCC [B.3, diethyloxalate, reference compound] here?
Answer: 97%

same assay, conditions: base formulation III. (Lipolase 0.2 wt%, tested compound 2.0 wt%); 3 d storage at 37° C.

Question: With CCOC(=O)C(=O)OCC [B.3, diethyloxalate, reference compound] as the molecule, how does the “lipase activity, 3 d” value read?
Answer: 94%

same assay, conditions: base formulation III. (Lipolase 0.2 wt%, tested compound 2.0 wt%); 7 d storage at 37° C.

Question: How did the “lipase activity, 7 d” value turn out when CCOC(=O)C(=O)OCC [B.3, diethyloxalate, reference compound] was run?
Answer: 79%

same assay, conditions: base formulation III. (Lipolase 0.2 wt%, tested compound 2.0 wt%); 14 d storage at 37° C.

Question: Which “lipase activity, 14 d” value does the source give for CCOC(=O)C(=O)OCC [B.3, diethyloxalate, reference compound] here?
Answer: 69%

same assay, conditions: base formulation III. (Lipolase 0.2 wt%, tested compound 2.0 wt%); 21 d storage at 37° C.

Question: How did the “lipase activity, 21 d” value turn out when CCOC(=O)C(=O)OCC [B.3, diethyloxalate, reference compound] was run?
Answer: 50%

same assay, conditions: base formulation III. (Lipolase 0.2 wt%, tested compound 2.0 wt%); 28 d storage at 37° C.

Question: How did the “lipase activity, 28 d” value turn out when CCOC(=O)C(=O)OCC [B.3, diethyloxalate, reference compound] was run?
Answer: 40%

same assay, conditions: base formulation III. (Lipolase 0.2 wt%, tested compound 2.0 wt%); 35 d storage at 37° C.

Question: Which “lipase activity, 35 d” value does the source give for CCOC(=O)C(=O)OCC [B.3, diethyloxalate, reference compound] here?
Answer: 32%

same assay, conditions: base formulation III. (Lipolase 0.2 wt%, tested compound 2.0 wt%); T0; relative to 100% value of reference formulation at time 0

Question: For CCOC(=O)C(=O)OCC [B.3, diethyloxalate, reference compound], which “lipase activity, T0” value is on record?
Answer: 98%

same assay, conditions: base formulation IV. (Lipolase 0.2 wt%, tested compound 2.0 wt%); 3 d storage at 37° C.

Question: CCOC(=O)C(=O)OCC [B.3, diethyloxalate, reference compound] was tested. Which “lipase activity, 3 d” value did it give?
Answer: 93%

same assay, conditions: base formulation IV. (Lipolase 0.2 wt%, tested compound 2.0 wt%); 7 d storage at 37° C.

Question: Which “lipase activity, 7 d” value does the source give for CCOC(=O)C(=O)OCC [B.3, diethyloxalate, reference compound] here?
Answer: 86%

same assay, conditions: base formulation IV. (Lipolase 0.2 wt%, tested compound 2.0 wt%); 14 d storage at 37° C.

Question: CCOC(=O)C(=O)OCC [B.3, diethyloxalate, reference compound] was tested. Which “lipase activity, 14 d” value did it give?
Answer: 74%

same assay, conditions: base formulation IV. (Lipolase 0.2 wt%, tested compound 2.0 wt%); 21 d storage at 37° C.

Question: Which “lipase activity, 21 d” value does the source give for CCOC(=O)C(=O)OCC [B.3, diethyloxalate, reference compound] here?
Answer: 63%

same assay, conditions: base formulation IV. (Lipolase 0.2 wt%, tested compound 2.0 wt%); 28 d storage at 37° C.

Question: Which “lipase activity, 28 d” value does the source give for CCOC(=O)C(=O)OCC [B.3, diethyloxalate, reference compound] here?
Answer: 51%

same assay, conditions: base formulation IV. (Lipolase 0.2 wt%, tested compound 2.0 wt%); 35 d storage at 37° C.

Question: How did the “lipase activity, 35 d” value turn out when CCOC(=O)C(=O)OCC [B.3, diethyloxalate, reference compound] was run?
Answer: 46%

same assay, conditions: base formulation IV. (Lipolase 0.2 wt%, tested compound 2.0 wt%); T0; relative to 100% value of reference formulation at time 0

Question: With CCOC(=O)C(=O)OCC [B.3, diethyloxalate, reference compound] as the molecule, how does the “lipase activity, T0” value read?
Answer: 98%

same assay, conditions: base formulation V. (Lipolase 0.2 wt%, tested compound 2.0 wt%); 3 d storage at 37° C.

Question: How did the “lipase activity, 3 d” value turn out when CCOC(=O)C(=O)OCC [B.3, diethyloxalate, reference compound] was run?
Answer: 92%

same assay, conditions: base formulation V. (Lipolase 0.2 wt%, tested compound 2.0 wt%); 7 d storage at 37° C.

Question: CCOC(=O)C(=O)OCC [B.3, diethyloxalate, reference compound] was tested. Which “lipase activity, 7 d” value did it give?
Answer: 85%

same assay, conditions: base formulation V. (Lipolase 0.2 wt%, tested compound 2.0 wt%); 14 d storage at 37° C.

Question: How did the “lipase activity, 14 d” value turn out when CCOC(=O)C(=O)OCC [B.3, diethyloxalate, reference compound] was run?
Answer: 71%

same assay, conditions: base formulation V. (Lipolase 0.2 wt%, tested compound 2.0 wt%); 21 d storage at 37° C.

Question: For CCOC(=O)C(=O)OCC [B.3, diethyloxalate, reference compound], which “lipase activity, 21 d” value is on record?
Answer: 65%

same assay, conditions: base formulation V. (Lipolase 0.2 wt%, tested compound 2.0 wt%); 28 d storage at 37° C.

Question: For CCOC(=O)C(=O)OCC [B.3, diethyloxalate, reference compound], which “lipase activity, 28 d” value is on record?
Answer: 56%

same assay, conditions: base formulation V. (Lipolase 0.2 wt%, tested compound 2.0 wt%); 35 d storage at 37° C.

Question: Which “lipase activity, 35 d” value does the source give for CCOC(=O)C(=O)OCC [B.3, diethyloxalate, reference compound] here?
Answer: 46%

same assay, conditions: base formulation V. (Lipolase 0.2 wt%, tested compound 2.0 wt%); T0; relative to 100% value of reference formulation at time 0

Question: With CCOC(=O)C(=O)OCC [B.3, diethyloxalate, reference compound] as the molecule, how does the “lipase activity, T0” value read?
Answer: 97%
